According to ChEMBL document CHEMBL1201862, “PubChem BioAssay data set” (2004):
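Briefly, cells in 96-well plates were exposed to five compound concentrations for 48 h, and endpoints were estimated by linear interpolation. GI50 marks 50% less growth.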 Active and inactive are the calls of the source. Rule as the data show it: active = GI50 up to about 1.1 µM and inactive = higher.

Assays:
Assay in all cases: NCI tumour cell line growth inhibition, 48 h
[1] = system: ACHN
[2] = system: BT-549
[3] = system: HCT-116
[4] = system: Hs-578T
[5] = system: K562
[6] = system: MDA-MB-435
[7] = system: NCI-H522
[8] = system: OVCAR-3
[9] = system: OVCAR-5
[10] = system: OVCAR-8
[11] = system: PC-3
[12] = system: SF-295
[13] = system: SK-MEL-28
[14] = system: SN12C
[15] = system: SNB-75
[16] = system: UACC-257
[17] = system: UO-31
[18] = system: CCRF-CEM
[19] = system: NCI-H23
[20] = system: RXF 393

Measured: GI50

C=C([C@@]1(O)C[C@H]2[C@H](CCC2(OC)OC)[C@@H]2c3ccccc3O[C@@H]21)[Si](C)(C)C
inactive: [1] > 100 µM | [2] > 100 µM | [3] > 100 µM | [4] > 100 µM | [5] 59.3 µM | [6] > 100 µM | [7] 89.7 µM | [8] > 100 µM | [9] > 100 µM | [10] > 100 µM | [11] > 100 µM | [12] > 100 µM | [13] > 100 µM | [14] > 100 µM | [15] > 100 µM | [16] > 100 µM | [17] 76.7 µM

CN[C@H]1CC[C@]23C[C@]24CC[C@]2(C)[C@@H]([C@H](C)N(C)C)CC[C@@]2(C)[C@@H]4CC[C@H]3C1(C)C
inactive: [1] 15.6 µM | [2] 12.7 µM | [18] 15.1 µM | [3] 11.4 µM | [4] 16.8 µM | [6] 14.1 µM | [19] 15.7 µM | [7] 17.2 µM | [8] 14.3 µM | [9] 21 µM | [10] 17.3 µM | [11] 9.08 µM | [12] 14.6 µM | [13] 12.4 µM | [14] 14.3 µM | [15] 14.4 µM | [16] 15.1 µM | [17] 11.9 µM

COc1cccc2c1-c1nc(N)c3c(OC)cccc3c1C2=O
inactive: [2] > 100 µM | [18] > 100 µM | [3] > 100 µM | [4] 22.2 µM | [5] 64.7 µM | [6] > 100 µM | [19] 24.9 µM | [7] > 100 µM | [8] > 100 µM | [9] > 100 µM | [10] 85.5 µM | [11] > 100 µM | [12] > 100 µM | [13] > 100 µM | [14] 95.1 µM | [15] 22.3 µM | [16] > 100 µM | [17] 45.1 µM

O=C(O)c1nc2ccc(C(F)(F)F)cc2nc1Nc1ccc(F)cc1
inactive: [1] 21.4 µM | [2] 12.5 µM | [3] 15.1 µM | [4] 36.4 µM | [5] 11.2 µM | [6] 17.6 µM | [19] 15.2 µM | [7] 6.07 µM | [8] 12.2 µM | [9] 28.4 µM | [10] 17.2 µM | [11] 15 µM | [20] 14.4 µM | [12] 11.5 µM | [13] 37.6 µM | [14] 26.8 µM | [15] 23.3 µM | [16] 22.3 µM | [17] 12 µM
